Experimental data published in ChEMBL document CHEMBL4665827, “Discovery of Small-Molecule Inhibitors of Receptor Activator of Nuclear Factor-κB Ligand with a Superior Therapeutic Index” (J Med Chem, 2020).
The source made the active and inactive calls. The calls are words filed in the database; no cut-off is given here.

Columns and labels:
[1] = molecular target: T1, Tumor necrosis factor ligand superfamily member 11 (Homo sapiens) (UniProt O14788); test: Inhibition of human RANKL-induced osteoclastogenesis in RANKL cultured mouse bone marrow cells assessed as reduction in RANKL/M-CSF-induced TRAP activity at 5 uM preincubated with RANKL for 1 hr followed by cell addition and subsequent media replenishment every 48 hrs for 4 days; assay type: cell-based; settings: time 4.0 day
T1 sequence (whole entry): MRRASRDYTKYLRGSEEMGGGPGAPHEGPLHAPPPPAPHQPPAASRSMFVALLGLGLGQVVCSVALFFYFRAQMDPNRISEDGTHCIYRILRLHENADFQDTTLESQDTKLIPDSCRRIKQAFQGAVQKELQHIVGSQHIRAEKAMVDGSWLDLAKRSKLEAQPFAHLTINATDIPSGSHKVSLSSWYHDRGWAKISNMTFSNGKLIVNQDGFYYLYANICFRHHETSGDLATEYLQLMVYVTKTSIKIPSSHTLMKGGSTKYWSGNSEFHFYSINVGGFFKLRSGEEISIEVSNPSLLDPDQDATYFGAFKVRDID

[2] = molecular target: T2, Tumor necrosis factor ligand superfamily member 11 (Homo sapiens, UniProt O14788); test: Binding affinity to GST-fused human RANKL extracellular domain (Lys159 to Asp317 residues) expressed in Escherichia coli BL21(DE3) pLysS by fluorescence spectrophotometric assay
T2 sequence (O14788 whole entry): T1 sequence (whole entry)

[3] = Cytotoxicity against mouse BMMC assessed as reduction in cell viability measured after 48 hrs by MTT assay; assay type: cell-based; settings: mouse BMMC (bone marrow cells), read-out: LC50

Structure (SMILES) | inhibition [1] | Kd [2] | CC50 at 48 h [3] | Kd ([2]; read-out: Kd)
O=C(c1ccc2ccccc2c1)N1CCN(C(=O)c2cn(S(=O)(=O)c3ccccc3)c3ccccc23)CC1 | inactive | Not Active |  | 
Nc1cccc(S(=O)(=O)n2cc(C(=O)N3CCN(C(=O)c4coc5ccccc5c4=O)CC3)c3ccccc32)c1 | inactive | Not Active |  | 
Nc1cccc(-n2cc(C(=O)N3CCN(C(=O)C4COc5ccccc5C4=O)CC3)c3cc(N)ccc32)c1 (stereo unspecified) | inactive | Not Active |  | 
O=C(c1ccccc1)N1CCN(C(=O)c2cn(-c3cccc(C(F)(F)F)c3)c3ccccc23)CC1 | inactive | Not Active |  | 
O=C(c1coc2ccccc2c1=O)N1CCN(C(=O)c2cn(-c3cccc(C(F)(F)F)c3)c3ccc([N+](=O)[O-])cc23)CC1 | inactive | Not Active |  | 
Cc1ccc2c(=O)c(CN(C)CCN(C)Cc3cn(S(=O)(=O)c4ccccc4)c4ccccc34)coc2c1 | 100% |  | < 20 µM | 4.9 µM
O=C(c1coc2ccccc2c1=O)N1CCN(Cc2cn(-c3cccc(C(F)(F)F)c3)c3ccc([N+](=O)[O-])cc23)CC1 | 100% | Not Active | < 20 µM | 
CN(CCN(C)C(=O)n1ccnc1)C(=O)c1cn(S(=O)(=O)c2ccccc2)c2ccccc12 | inactive | Not Active |  | 
O=C(c1coc2ccccc2c1=O)N1CCN(C(=O)c2cn(-c3cccc([N+](=O)[O-])c3)c3ccccc23)CC1 | inactive |  |  | > 25 µM
CN(CCN(C)C(=O)c1cn(S(=O)(=O)c2ccccc2)c2ccccc12)C(=O)c1ccccc1F | Active |  | > 20 µM | 12.5 µM
O=C(c1cn(-c2cccc(C(F)(F)F)c2)c2ccccc12)N1CCN(C(=O)n2ccnc2)CC1 | Active |  | < 20 µM | 5.34 µM
O=C(c1coc2ccccc2c1=O)N1CCN(Cc2cn(-c3cccc(C(F)(F)F)c3)c3ccccc23)CC1 | Active |  | > 20 µM | 8.49 µM
CN(CCN(C)C(=O)c1cn(S(=O)(=O)c2ccccc2)c2ccccc12)C(=O)c1ccccc1 | inactive |  |  | > 15 µM
Nc1cccc(-n2cc(C(=O)N3CCN(C(=O)c4coc5ccccc5c4=O)CC3)c3ccccc32)c1 | inactive |  |  | 19.1 µM
O=C(c1ccccc1)N1CCN(Cc2cn(-c3cccc(C(F)(F)F)c3)c3ccccc23)CC1 | Active |  | > 20 µM | 18.6 µM
Cc1ccc2occ(CN3CCN(Cc4cn(-c5cccc(C(F)(F)F)c5)c5ccccc45)CC3)c(=O)c2c1 | inactive |  |  | > 11 µM
O=C(NCCNC(=O)c1cn(S(=O)(=O)c2ccccc2)c2ccccc12)c1ccc2ccccc2c1 | inactive |  |  | 3.55 µM
O=C(NCCCNC(=O)c1cn(S(=O)(=O)c2ccccc2)c2ccccc12)c1ccccc1 | inactive | Not Active |  | 
O=C(NCCCCNC(=O)c1cn(S(=O)(=O)c2ccccc2)c2ccccc12)c1ccc2ccccc2c1 | inactive |  |  | 18.4 µM
O=C(c1cccs1)N1CCN(C(=O)c2c[nH]c3ccc([N+](=O)[O-])cc23)CC1 | inactive |  |  | 15.8 µM
O=C(c1ccc2ccccc2c1)N1CCN(C(=O)c2cn(-c3cccc(C(F)(F)F)c3)c3ccccc23)CC1 | inactive | Not Active |  | 
CN(CCN(C)C(=O)c1cn(S(=O)(=O)c2cccc(N)c2)c2ccccc12)C(=O)c1coc2ccccc2c1=O | inactive |  |  | 22.3 µM
CN(CCN(C)C(=O)c1cn(-c2cccc(N)c2)c2ccccc12)C(=O)c1coc2ccccc2c1=O | inactive |  |  | 17.6 µM
O=C(NCCCNC(=O)c1cn(S(=O)(=O)c2ccccc2)c2ccccc12)c1coc2ccccc2c1=O | inactive | Not Active |  | 
O=C(c1ccc2ccccc2c1)N1CCN(Cc2cn(-c3cccc(C(F)(F)F)c3)c3ccccc23)CC1 | inactive | Not Active |  | 
